According to PMC8147781, “Discovery of Pyrrolidine-2,3-diones as Novel Inhibitors of P. aeruginosa PBP3” (Antibiotics, 2021):
In brackets after ≈: the same amount, converted by molar mass.

How the values were obtained:
[1] = test system: P. aeruginosa K2896 ΔmexBΔmexXYΔmexCD-oprJ; assay: MIC broth microdilution, P. aeruginosa K2896 efflux mutant; assay type: cell-based, Pseudomonas aeruginosa
Excerpt: (§1) The results presented above implied that seven pyrrolidine-2,3-dione derivatives inhibited the activity of ^PaPBP3 in vitro. Consequently, we were very interested in investigating the potential of these compounds to affect the growth of P. aeruginosa. Two P. aeruginosa bacterial strains (the wild-type PAO1 and the isogenic ΔmexB ΔmexX ΔmexCD-oprJ efflux pump mutant) were used to determine the MIC and the potential role of the main P. aeruginosa efflux systems in compound uptake. To increase the antibacterial sensitivity of the tested P. aeruginosa isolates to the potential inhibitors, we performed MIC experiments in the presence and absence of a sub-MIC concentration (4 µg/mL) of the outer membrane permeabilising polymyxin B nonapeptide (PMBN). […] Thus, we concluded that the physicochemical properties of the pyrrolidine-2,3-dione compounds were perhaps not yet favourable enough to cross the P. aeruginosa cell envelope without a permeabiliser because of their high hydrophobicity.
(§2) The wild-type P.aeruginosa PAO1 and the isogenic P. aeruginosa K2896 ΔmexBΔmexXYΔmexCD-oprJ isolates were used to determine the MIC in the presence and absence of PMBN [48].
(§3) MIC determination was performed via standard broth microdilution according to the Clinical & Laboratory Standards institute guidelines. Overnight colonies grown on BD-Columbia agar with 5% Sheep Blood (Becton Dickinson, Franklin Lakes, NJ, USA), were diluted in Mueller Hinton Broth 2 cation adjusted (MH+) medium (Thermo Fisher Scientific) to a concentration of 5 × 10^5 CFU/mL. Serial dilutions (1:2) of test compounds were incubated at 37 °C with 5 × 10^4 bacteria in a final volume of 100 μL. Sterile and growth controls in the presence of 1% DMSO and PMBN if the case, and the positive controls, aztreonam (AZT) and tigecycline (TIG) were included in the experiments (Table S4). The MICs were determined visually after 18 h at 37 °C and confirmed by the addition of 10% PrestoBlue (ThermoFisher Scientific) reagent according to the manufacture’s protocol. The fluorescence signal of PrestoBlue reagent was measured at Ex/Em: 550/595 nm after 30 min incubation at 37 °C using at a ClarioStar microplate reader (BMG Labtech). PrestoBlue reduction occurs in the presence of living cells and consequently turns red in colour and is highly fluorescent.

S. pneumoniae = assay: MIC broth microdilution, S. pneumoniae; assay type: cell-based; settings: Streptococcus pneumoniae, 18 h; PMBN 0 µg/mL, control compounds; read-out: MIC (µM) S. pneumoniae
Description: as §3

[2] = test system: P. aeruginosa PAO1 (wild-type strain); assay: MIC broth microdilution, P. aeruginosa PAO1; assay type: cell-based, Pseudomonas aeruginosa
Excerpt: as §1, §2, §3

E. coli Neumann = assay: MIC broth microdilution, E. coli; assay type: cell-based; settings: Escherichia coli; PMBN 0 µg/mL, control compounds; read-out: MIC (µM) E. coli Newmann
Description: as §3

[3] = test system: K. pneumoniae clinical isolate; assay: MIC broth microdilution, K. pneumoniae; assay type: cell-based; settings: control compounds
Description: as §3

S. aureus 133 = assay: MIC broth microdilution, S. aureus; assay type: cell-based; settings: Staphylococcus aureus, 133, 18 h; PMBN 0 µg/mL, control compounds
Description: as §3

B. subtilis 168 = assay: MIC broth microdilution, B. subtilis; assay type: cell-based; settings: Bacillus subtilis, 168, 18 h; PMBN 0 µg/mL, control compounds
Description: as §3

A. baumannii ATCC15308 = assay: MIC broth microdilution, A. baumannii; assay type: cell-based; settings: Acinetobacter baumannii, control compounds
Description: as §3

## CN(C)c1cc(NC(=O)CNC(C)(C)C)c(O)c2c1C[C@H]1C[C@H]3[C@H](N(C)C)C(O)=C(C(N)=O)C(=O)[C@@]3(O)C(O)=C1C2=O [Tygecyclin, tigecycline, reference compound]
[1]; Pseudomonas aeruginosa, read-out: MIC (µM) P. aeruginosa K2896
  MIC: 0.8 µM (≈ 0.469 µg/mL)
[1]; ΔmexB, ΔmexX, ΔmexCD-oprJ, with 4 µg/mL PMBN
  MIC (µM) against P. aeruginosa K28926: 0.2 µM (≈ 0.117 µg/mL)
S. pneumoniae
  MIC: 0.1 µM (≈ 0.0586 µg/mL)
[2]; Pseudomonas aeruginosa, PAO1, PMBN 0 µg/mL (absence of PMBN)
  MIC: > 4 µM
[2]; wild-type strain, with 4 µg/mL PMBN
  MIC (µM) against P. aeruginosa PAO1: 0.4 µM (≈ 0.234 µg/mL)
E. coli Neumann
  MIC: 0.4 µM (≈ 0.234 µg/mL)
[3]; PMBN 0 µg/mL
  MIC: 0.9 µM (≈ 0.527 µg/mL)
[3]; PMBN 50 µg/mL
  MIC: 0.4 µM (≈ 0.234 µg/mL)
S. aureus 133
  MIC: 0.2 µM (≈ 0.117 µg/mL)
B. subtilis 168
  MIC: 0.2 µM (≈ 0.117 µg/mL)
A. baumannii ATCC15308; ATCC15308, PMBN 0 µg/mL
  MIC: 0.9 µM (≈ 0.527 µg/mL)
A. baumannii ATCC15308; ATCC15308, PMBN 50 µg/mL
  MIC: 0.4 µM (≈ 0.234 µg/mL)
